How the values were obtained:
Test in all cases: Kinobeads competition binding, L-363 cell lysate
Parameters in all cases: endogenous in cells
Settings in all cases: 10 μM free compound, L-363 lysate
[1] = biological target: MARK3 (Homo sapiens, UniProt P27448)
Procedure: (§1) To one aliquot of cell lysate 10 μM of the free compound (FIG. 3, CZC31326) was added and allowed to bind to proteins in the lysate. Then the affinity matrix with the immobilized compound was added to capture proteins that were not interacting with the previously added free compound. Beads were separated from the lysate and bead bound proteins were eluted in SDS sample buffer and subsequently separated by SDS-Polyacrylamide gel electrophoresis (FIG. 8). Suitable gel bands were cut out and subjected to in-gel proteolytic digestion with trypsin. The second lysate aliquot was processed identically, however no free compound was added (DMSO solvent control). Peptides originating from samples 1 and 2 were labeled with iTRAQ reagents (iTRAQ 114 and iTRAQ 117) and the combined samples were analyzed with a nano-flow liquid chromatography system coupled online to a tandem mass spectrometer (LC-MS/MS) experiment followed by iTRAQ reporter ion quantification in the MS/MS spectra as described in Example 2.
(§2) For this experiment the human plasma cell leukaemia line L-363 was used (German Collection of Microorganisms and Cell Cultures, DSMZ number ACC49, Braunschweig, Germany). Cells were treated for three hours with 20 μM of the proteasome inhibitor MG132 (Z-Leu-Leu-Leu-al, Sigma C2211) prior to cell harvesting.

[2] = biological target: QIK (Homo sapiens, UniProt Q9H0K1)
Procedure: as §1, §2

[3] = biological target: T1, TEC (Homo sapiens, UniProt P42680)
T1 sequence (P42680 1-631): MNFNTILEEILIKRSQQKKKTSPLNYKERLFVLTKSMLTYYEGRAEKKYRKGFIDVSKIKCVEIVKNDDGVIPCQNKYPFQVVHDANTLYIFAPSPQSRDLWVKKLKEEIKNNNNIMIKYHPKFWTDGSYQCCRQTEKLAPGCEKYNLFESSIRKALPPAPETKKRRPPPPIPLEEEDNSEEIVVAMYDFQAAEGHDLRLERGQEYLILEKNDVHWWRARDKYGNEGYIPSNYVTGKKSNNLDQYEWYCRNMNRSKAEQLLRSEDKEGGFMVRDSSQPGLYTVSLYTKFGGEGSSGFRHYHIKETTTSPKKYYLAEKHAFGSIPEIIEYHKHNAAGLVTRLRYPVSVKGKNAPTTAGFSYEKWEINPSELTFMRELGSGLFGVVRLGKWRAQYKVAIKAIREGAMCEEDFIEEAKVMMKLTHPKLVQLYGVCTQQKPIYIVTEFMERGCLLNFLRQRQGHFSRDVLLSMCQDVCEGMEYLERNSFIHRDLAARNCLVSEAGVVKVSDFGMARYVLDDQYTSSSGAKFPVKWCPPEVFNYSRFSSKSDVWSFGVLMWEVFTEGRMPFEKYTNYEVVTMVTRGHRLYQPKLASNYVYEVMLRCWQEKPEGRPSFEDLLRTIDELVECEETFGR
Procedure: as §1, §2

[4] = biological target: TYK2 (Homo sapiens, UniProt P29597)
Procedure: as §1, §2

[5] = biological target: ALK2 (Homo sapiens, UniProt Q04771)
Procedure: as §1, §2

[6] = biological target: JNK1 (Homo sapiens, UniProt P45983)
Procedure: as §1, §2

[7] = biological target: IRAK1 (Homo sapiens, UniProt P51617)
Procedure: as §1, §2

[8] = biological target: T2, MST1 (Homo sapiens, UniProt Q13043)
T2 sequence (Q13043 1-487): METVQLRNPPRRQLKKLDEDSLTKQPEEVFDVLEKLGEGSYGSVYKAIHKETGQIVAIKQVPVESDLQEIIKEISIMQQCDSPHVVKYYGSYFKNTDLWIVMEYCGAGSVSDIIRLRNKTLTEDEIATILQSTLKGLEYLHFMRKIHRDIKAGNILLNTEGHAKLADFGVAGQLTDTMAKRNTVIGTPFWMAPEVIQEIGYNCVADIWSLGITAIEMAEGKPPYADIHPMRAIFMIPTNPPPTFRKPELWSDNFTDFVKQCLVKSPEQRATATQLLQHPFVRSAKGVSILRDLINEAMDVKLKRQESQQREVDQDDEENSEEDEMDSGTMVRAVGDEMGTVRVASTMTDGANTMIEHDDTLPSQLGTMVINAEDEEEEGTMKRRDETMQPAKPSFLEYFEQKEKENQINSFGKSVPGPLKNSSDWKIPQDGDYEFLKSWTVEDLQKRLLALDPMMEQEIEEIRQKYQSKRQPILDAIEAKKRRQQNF
Procedure: as §1, §2

[9] = biological target: CK2a2 (Homo sapiens, UniProt P19784)
Procedure: as §1, §2

[10] = biological target: Erk2 (Homo sapiens, UniProt P28482)
Procedure: as §1, §2

[11] = biological target: HPK1 (Homo sapiens, UniProt Q92918)
Procedure: as §1, §2

[12] = biological target: T3, AurA (Homo sapiens, UniProt O14965)
T3 sequence (O14965 1-403): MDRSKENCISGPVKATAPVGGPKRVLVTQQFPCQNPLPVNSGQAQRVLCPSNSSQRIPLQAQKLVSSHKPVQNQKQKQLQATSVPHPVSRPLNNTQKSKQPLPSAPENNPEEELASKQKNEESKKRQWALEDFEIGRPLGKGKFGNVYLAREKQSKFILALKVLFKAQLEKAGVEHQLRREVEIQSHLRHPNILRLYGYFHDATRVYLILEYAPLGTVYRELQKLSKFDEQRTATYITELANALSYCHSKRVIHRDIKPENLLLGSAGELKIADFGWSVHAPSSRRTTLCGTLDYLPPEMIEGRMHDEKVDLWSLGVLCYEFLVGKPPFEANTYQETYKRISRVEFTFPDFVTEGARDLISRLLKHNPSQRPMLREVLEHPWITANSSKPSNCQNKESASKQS
Procedure: as §1, §2

[13] = biological target: PKN1 (Homo sapiens, UniProt Q16512)
Procedure: as §1, §2

[14] = biological target: Erk1 (Homo sapiens, UniProt P27361)
Procedure: as §1, §2

inhibition at 10 µM [1]: 97%
inhibition at 10 µM [2]: 96.5%
inhibition at 10 µM [3]: 92.8%
Competition % [4]: 96.9%
inhibition at 10 µM [5]: 95.7%
Competition % [6]: 87%
inhibition at 10 µM [7]: 95.1%
Competition % [8]: 98.3%
inhibition at 10 µM [9]: 97.5%
inhibition at 10 µM [10]: 74.4%
inhibition at 10 µM [11]: 98%
inhibition at 10 µM [12]: 97%
inhibition at 10 µM [13]: 95.9%
inhibition at 10 µM [14]: 83.2%
SMILES: CS(=O)(=O)Nc1ccccc1Nc1nc(Nc2cccc(OCCN)c2)ncc1Cl [CZC31326, N-(2-(2-(3-(2-aminoethoxy)phenylamino)-5-chloropyrimidin-4-ylamino)phenyl)methanesulfonamide]
